In paper PMC6290777, “Inhalation of the prodrug PI3K inhibitor CL27c improves lung function in asthma and fibrosis” (Nature Communications, 2018):

Legend:
[1] = Glycemia and insulin challenge after inhaled CL27c; type: in vivo, mice; settings: N.S. vs vehicle
Protocol: To define whether this prodrug was suitable for inhaled administration, CL27c was studied to evaluate selected ADME (absorption, distribution, metabolism, and excretion) and pharmacokinetic properties. First, stability of CL27c and CL27e was analyzed in mouse plasma (Supplementary Table 1) and in mouse, rat, and human liver microsomes in the presence of nicotinamide adenine dinucleotide phosphate (NADPH; Supplementary Table 2). Next, clearance of CL27c was analyzed in C57BL/6J mice after either intra-venous or oral administration. […] Clearance of CL27c and CL27e after oral administration could not be determined due to their low bioavailability (Supplementary Table 3). Next, pharmacokinetics after inhalation was studied in C57BL/6J mice after delivering an aerosolized micro-suspension of CL27c. As shown in Table 1 and Supplementary Fig. 1b, CL27c dose-dependently reached the lungs and its metabolite CL27e was detectable after inhalation of the highest dose. […] Therefore, the inhaled prodrug promotes local effects but prevents systemic absorption of pharmacologically relevant amounts of the active compound.
Animals were fasted overnight and, the day after, they were treated for 30 min with aerosolized CL27c (2 mg/ml in 0.5 % tylaxopol/saline solution). […]

[2] = Microsomial stability, mouse; type: in vitro ADME; settings: mouse liver microsomes, NADPH
Protocol: To define whether this prodrug was suitable for inhaled administration, CL27c was studied to evaluate selected ADME (absorption, distribution, metabolism, and excretion) and pharmacokinetic properties. First, stability of CL27c and CL27e was analyzed in mouse plasma (Supplementary Table 1) and in mouse, rat, and human liver microsomes in the presence of nicotinamide adenine dinucleotide phosphate (NADPH; Supplementary Table 2). Next, clearance of CL27c was analyzed in C57BL/6J mice after either intra-venous or oral administration. […] Clearance of CL27c and CL27e after oral administration could not be determined due to their low bioavailability (Supplementary Table 3). […]
obtained at 200 × magnification were analyzed using the software Image -J (NIH, USA). Results were expressed as extracellular matrix deposition area (pixels). […]
Akt phosphorylation was measured by western blot as described in the “Western blot analysis” in […]
Cells were obtained from Lymph nodes and spleen from naive C57Bl/6J and purified with CD4 T cell isolation Kit (Miltenyi Biotec #130-104-454) and with CD25 biotin (eBioscience #13-0252-81) and microbeads anti-biotin (Miltenyi Biotec #130-090-485). […] Positive stained cells were analyzed with FlowJo X software after removal of doublets events and debris through FSC-A/FSC-H gating.

COC(=O)c1cccc(Cn2cc(-c3cccc4c(=O)cc(N5CCOCC5)[nH]c34)nn2)c1 [CL27c]
drop in glycemia 10 min after an insulin challenge [1]: 17.45 ± 3.00 % drop
glycemia [1]: 213.0 ± 5.6 mg/dL
Clint (intrinsic clearance) [2]: 0.1 ± 0.02 ml/min/mg prot
t1/2 [2]: 12.4 ± 2.0 min
